Reference: patent publication US10167272B2, “Muscarinic agonists” (Heptares Therapeutics Limited, priority 2015, dated 2019)
Like-named read-outs stand apart in the source and are kept apart here.

Key:
[1] = target: T1, human muscarinic M4 receptor (Homo sapiens, UniProt P08173); experiment: Alphascreen Surefire phospho-ERK1/2 functional assay, M4; assay type: cell-based; conditions: for EC50: read-out: pEC50 M4 (converted); for Emax: CHO
T1 construct: expressed in transfected cells
T1 sequence (P08173 1-479): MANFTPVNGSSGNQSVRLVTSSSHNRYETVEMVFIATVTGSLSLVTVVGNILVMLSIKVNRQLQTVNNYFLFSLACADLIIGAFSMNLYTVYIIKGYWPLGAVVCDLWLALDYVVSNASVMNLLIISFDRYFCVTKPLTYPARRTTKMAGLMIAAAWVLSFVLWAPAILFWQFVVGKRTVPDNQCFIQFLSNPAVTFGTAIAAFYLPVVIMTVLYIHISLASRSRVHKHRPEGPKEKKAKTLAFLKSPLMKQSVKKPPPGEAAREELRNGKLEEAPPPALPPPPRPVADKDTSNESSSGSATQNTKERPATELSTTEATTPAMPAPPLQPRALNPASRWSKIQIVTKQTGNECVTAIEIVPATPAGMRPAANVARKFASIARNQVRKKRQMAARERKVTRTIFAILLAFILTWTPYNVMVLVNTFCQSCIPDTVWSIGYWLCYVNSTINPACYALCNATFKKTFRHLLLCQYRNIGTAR

[2] = target: T2, human muscarinic M1 receptor (Homo sapiens, UniProt P11229); experiment: Alphascreen Surefire phospho-ERK1/2 functional assay, M1; assay type: cell-based; conditions: for EC50: read-out: pEC50 M1 (converted); for Emax: CHO
T2 sequence (P11229 1-460): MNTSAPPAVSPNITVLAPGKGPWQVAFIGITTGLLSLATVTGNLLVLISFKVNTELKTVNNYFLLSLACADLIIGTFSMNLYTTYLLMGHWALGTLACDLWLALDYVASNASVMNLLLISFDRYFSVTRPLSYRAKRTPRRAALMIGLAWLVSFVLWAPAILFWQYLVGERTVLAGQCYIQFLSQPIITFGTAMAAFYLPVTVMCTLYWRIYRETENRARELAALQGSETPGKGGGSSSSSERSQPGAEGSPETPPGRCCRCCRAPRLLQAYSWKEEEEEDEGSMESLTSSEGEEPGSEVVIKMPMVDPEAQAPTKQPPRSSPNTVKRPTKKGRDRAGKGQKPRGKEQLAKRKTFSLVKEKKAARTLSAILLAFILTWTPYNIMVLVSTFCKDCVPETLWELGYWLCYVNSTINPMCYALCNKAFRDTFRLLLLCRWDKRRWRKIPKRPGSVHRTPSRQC
Description: ERK1/2 phosphorylation is a downstream consequence of both Gq/11 and Gi/o protein coupled receptor activation, making it highly suitable for the assessment of M1, M3 (Gq/11 coupled) and M2, M4 receptors (Gi/o coupled), rather than using different assay formats for different receptor subtypes. CHO cells stably expressing the human muscarinic M1, M2, M3 or M4 receptor were plated (25K/well) onto 96-well tissue culture plates in MEM-alpha+10% dialysed FBS. Once adhered, cells were serum-starved overnight. Agonist stimulation was performed by the addition of 5 μL agonist to the cells for 5 min (37° C.). Media was removed and 50 μL of lysis buffer added. After 15 min, a 4 μL sample was transferred to 384-well plate and 7 μL of detection mixture added.

[3] = CHO cells stably expressing human M4, phospho-ERK1/2
[4] = CHO cells stably expressing human M4, phospho-ERK1/2, relative to ACh
[5] = CHO cells stably expressing human M1, phospho-ERK1/2
[6] = read-out: % Emax cf. ACh (M1), CHO cells stably expressing human M1, phospho-ERK1/2, relative to ACh
[7] = CHO cells stably expressing human M1, phospho-ERK1/2, relative to ACh
[8] = read-out: % Emax cf. ACh (M4), CHO cells stably expressing human M4, phospho-ERK1/2, relative to ACh

Row | SMILES | EC50 [1, 3] | % Emax cf. ACh (M4) [1, 4] | EC50 [2, 5] | Emax [2, 6] | pEC50 M4 [1, 3] | pEC50 M1 [2, 5] | % Emax cf. ACh (M1) [2, 7] | Emax [1, 8] | Emax ([1]; read-out: % Emax cf. ACh (M4)) | Emax ([2]; read-out: % Emax cf. ACh (M1))
1 | CCOC(=O)N1CCC2(CC(N3CCC(N(C(C)=O)C4CC4)CC3)C2)C1 (single isomer, unassigned) [2-3 Isomer 1] | > 20000 nM | 13% | 2000 nM | 78% |  |  |  |  |  | 
2 | CCOC(=O)N1CCC2(CC(N3CCC(CN(C(C)=O)C4CC4)CC3)C2)C1 (single isomer, unassigned) [2-12 Isomer 2] |  | 41% |  |  | 6.7 | < 4.7 | 6% |  |  | 
3 | COC(=O)N1CCC2(CC(N3CCC(N(C(C)=O)C4CCC4)CC3)C2)C1 (single isomer, unassigned) [2-15 Isomer 2] | 200 nM |  | 501 nM | 117% |  |  |  | 95% |  | 
4 | CCN(C(C)=O)C1CCN(C2CC3(CCN(C(=O)OC)C3)C2)CC1 (single isomer, unassigned) [2-17 Isomer 1] | 1260 nM |  | > 20000 nM |  |  |  | 27% | 87% |  | 
5 | CCN(C(C)=O)C1CCN(C2CC3(CCN(C(=O)OC)C3)C2)CC1 (single isomer, unassigned) [2-17 Isomer 2] | 200 nM | 92% | 1260 nM |  |  |  | 80% |  |  | 
6 | CCCN(C(C)=O)C1CCN(C2CC3(CCN(C(=O)OCC)C3)C2)CC1 (single isomer, unassigned) [2-18 Isomer 2] | 200 nM |  | 2000 nM | 89% |  |  |  | 107% |  | 
7 | CCOC(=O)N1CCC2(CC(N3CCC(N(CC(C)C)C(C)=O)CC3)C2)C1 (single isomer, unassigned) [2-19 Isomer 1] | 251 nM | 62% | 1260 nM |  |  |  | 32% |  |  | 
8 | CCOC(=O)N1CCC2(CC(N3CCC(N(CC4CC4)C(C)=O)CC3)C2)C1 (single isomer, unassigned) [2-20 Isomer 1] | 1000 nM | 36% | > 20000 nM |  |  |  | 17% |  |  | 
9 | CCOC(=O)N1CCC2(CC(N3CCC(N(CC4(C)CCC4)C(C)=O)CC3)C2)C1 (single isomer, unassigned) [2-21 Isomer 1] | 316 nM |  | 15800 nM |  |  |  | 51% |  |  | 
10 | CCOC(=O)N1CCC2(CC(N3CCC(N(C(C)=O)C4(C)CCC4)CC3)C2)C1 (single isomer, unassigned) [2-22 Isomer 2] | 79.4 nM |  | 316 nM | 132% |  |  |  | 139% |  | 
11 | CCOC(=O)N1CCC2(CC(N3CCC(N(CC4(C)COC4)C(C)=O)CC3)C2)C1 (single isomer, unassigned) [2-23 Isomer 2] | 631 nM |  | 1260 nM | 43% |  |  |  | 65% |  | 
12 | CCOC(=O)N1CCC2(CC(N3CCC(N(CC(F)(F)F)C(C)=O)CC3)C2)C1 (single isomer, unassigned) [2-25 Isomer 2] | 100 nM |  | 3980 nM | 125% |  |  |  | 101% |  | 
13 | CCOC(=O)N1CCC2(CC(N3CCC(N(CC(C)(C)F)C(C)=O)CC3)C2)C1 (single isomer, unassigned) [2-26 Isomer 1] | 1000 nM | 52% | > 20000 nM |  |  |  | 23% |  |  | 
14 | CCOC(=O)N1CCC2(CC(N3CCC(N(CC(C)(C)F)C(C)=O)CC3)C2)C1 (single isomer, unassigned) [2-26 Isomer 2] | 63.1 nM | 114% | 398 nM |  |  |  | 109% |  |  | 
15 | CCOC(=O)N1CCC2(CC(N3CCC(N(CC(C)(F)F)C(C)=O)CC3)C2)C1 (single isomer, unassigned) [2-27 Isomer 2] | 79.4 nM |  | 631 nM | 108% |  |  |  | 105% |  | 
16 | CCOC(=O)N1CCC2(CC(N3CCC(N(C(C)=O)C4CC(F)(F)C4)CC3)C2)C1 (single isomer, unassigned) [2-28 Isomer 2] | 251 nM |  | 158 nM | 124% |  |  |  | 80% |  | 

Row | SMILES | EC50 [1, 3] | % Emax cf. ACh (M4) [1, 4] | EC50 [2, 5] | Emax [2, 6] | pEC50 M4 [1, 3] | pEC50 M1 [2, 5] | % Emax cf. ACh (M1) [2, 7] | Emax [1, 8] | Emax ([1]; read-out: % Emax cf. ACh (M4)) | Emax ([2]; read-out: % Emax cf. ACh (M1))
17 | CCOC(=O)N1CCC2(CC(N3CCC(N(CC(C)(C)OC)C(C)=O)CC3)C2)C1 (single isomer, unassigned) [2-29 Isomer 1] | 1260 nM | 56% | > 20000 nM |  |  |  | 17% |  |  | 
18 | CCOC(=O)N1CCC2(CC(N3CCC(N(CC4(OC)CCC4)C(C)=O)CC3)C2)C1 (single isomer, unassigned) [2-30 Isomer 1] | 126 nM | 59% | 1260 nM |  |  |  | 33% |  |  | 
19 | CCOC(=O)N1CCC2(CC(N3CCC(N(CC4(O)CCC4)C(C)=O)CC3)C2)C1 (single isomer, unassigned) [2-31 Isomer 1] | 200 nM | 62% | 3980 nM |  |  |  | 27% |  |  | 
20 | CCOC(=O)N1CCC2(CC(N3CCC(N(CC4(O)CCC4)C(C)=O)CC3)C2)C1 (single isomer, unassigned) [2-31 Isomer 2] | 39.8 nM | 95% | 398 nM |  |  |  | 78% |  |  | 
21 | CCOC(=O)N1CCC2(CC(N3CCC(N(Cc4cnco4)C(C)=O)CC3)C2)C1 (single isomer, unassigned) [2-36 Isomer 2] | 631 nM |  | 2510 nM | 45% |  |  |  | 71% |  | 
22 | CCOC(=O)N1CCC2(CC(N3CCC(N(Cc4ncco4)C(C)=O)CC3)C2)C1 (single isomer, unassigned) [2-37 Isomer 2] | 631 nM |  | 1260 nM | 26% |  |  |  | 55% |  | 
23 | CCOC(=O)N1CCC2(CC(N3CCC(N(CC(F)(F)F)C(=O)OCCOC)CC3)C2)C1 (single isomer, unassigned) [2-43 Isomer 2] | 126 nM |  | 2510 nM | 35% |  |  |  | 91% |  | 
24 | CCOC(=O)N1CCC2(CC(N3CCC(N(CCO)C4CC4)CC3)C2)C1 (single isomer, unassigned) [2-49 Isomer 2] | 1260 nM |  | > 20000 nM | 8% |  |  |  | 78% |  | 
25 | CCOC(=O)N1CCC2(CC(N3CCC(N(CCO)C4CCC4)CC3)C2)C1 (single isomer, unassigned) [2-50 Isomer 2] | 251 nM |  | > 20000 nM | 17% |  |  |  | 70% |  | 
26 | CCOC(=O)N1CCC2(CC(N3CCC(N(CC)C4COC4)CC3)C2)C1 (single isomer, unassigned) [2-53 Isomer 2] | 251 nM |  | > 20000 nM | 42% |  |  |  | 62% |  | 
27 | CCOC(=O)N1CCC2(CC(N3CCC(N(CC)CCS(C)(=O)=O)CC3)C2)C1 (single isomer, unassigned) [2-56 Isomer 2] | 1260 nM |  | > 20000 nM | 7% |  |  |  | 41% |  | 
28 | CCOC(=O)N1CCC2(CC(N3CCC(N(CCO)c4ccccc4)CC3)C2)C1 (single isomer, unassigned) [2-58 Isomer 2] | 251 nM |  | 1260 nM |  |  |  |  |  | 74% | 63%
29 | CCOC(=O)N1CCC2(CC(N3CCC(C(C)n4cccn4)CC3)C2)C1 (single isomer, unassigned) [2-65 Isomer 1a] | > 20000 nM | 14% | 7940 nM | 45% |  |  |  |  |  | 
30 | CCOC(=O)N1CCC2(CC(N3CCC(N(CC)C(=O)N(C)C)CC3)C2)C1 (single isomer, unassigned) [Example 2-44 Isomer 2] | 398 nM |  | 2510 nM | 55% |  |  |  | 80% |  | 
31 | CCOC(=O)N1CC2(CC(N3CCC(N(C(C)=O)C4CC4)CC3)C2)C1 [Example 1-1] | 316 nM |  | 2510 nM | 72% |  |  |  | 77% |  | 
